# Earlier results, collected in patent US20050009848A1, “Use of antivirals against inflammatory bowel diseases” (ICN Pharmaceuticals Switzerland Ltd., priority 2003, published 2005).
# Details: one patient with Crohn's disease, HSV-I and HSV-II DNA detected in intestinal mucosa; acyclovir co-used with classical mesalazin-corticosteroid therapy
compound,measurement,value
Nc1nc2c(ncn2COCCO)c(=O)[nH]1 [acyclovir],morphological and clinical findings,changed the morphological and clinical findings decisively
